From patent US20230414634A1, “METHODS FOR TREATING CHOLESTATIC PRURITUS” (GlaxoSmithKline Intellectual Property (No.2) Limited, priority 2020, published 2023)

Columns and labels:
[1] = tested on: PBC patients with pruritus; assay: Phase 2a crossover clinical study BAT117213 (NCT01899703) of GSK672 versus placebo; assay type: in vivo, human
Procedure: A Phase 2a clinical study (NCT01899703; GSK study BAT117213) was carried out to investigate the safety, tolerability, and effect of repeat doses of GSK672 administration in patients with cholestatic pruritus in Primary Biliary Cholangitis (PBC). The results of this study have been summarized and published on clintrials.gov (NCT01899703).
A phase 2 double-blind, randomised, placebo controlled, crossover trial in PBC patients with pruritus was conducted at two specialist PBC centres in the United Kingdom between March 2014 and November 2015. Subjects received oral 45 to 90 mg GSK672 (45 mg BID for Day 1 to 3 and 90 mg BID for Days 4 to 14) and placebo twice daily for 14 days, in a crossover sequence.
The three different itch rating scales were employed: 10-point NRS, 5D Itch Scale and PBC-40.
The primary end point was safety (measured by clinical and laboratory assessments and adverse events (AEs)) and tolerability. Secondary end points were: i) changes in pruritus scores from baseline measured using a 0 to 10 numerical rating scale (NRS) completed twice daily and PBC-40 itch domain scores and 5-D itch scale and ii) changes in serum levels of total bile acids and C4. Serum levels of ATX activity and FGF-19 were measured at baseline and at the end of each treatment period.
An analysis was carried out as to the effect of 90 mg BID. No analysis was carried out as to the effect of 45 mg BID as this dose was administered for Days 1 to 3 in order to ease patients onto the higher 90 mg BID dose.

[2] = tested on: patients with PBC and cholestatic pruritus; assay: GLIMMER Phase 2b study: safety and tolerability (adverse events, Safety population); assay type: in vivo, human
Excerpt: Secondary and exploratory endpoints: itch efficacy, quality of life (PBC-40) and pharmacodynamic biomarkers, and safety and tolerability.
In the GLIMMER trial, once daily dosing (QD) was expected to be the optimum dosing regimen. The rationale for QD was as follows: i) it was considered optimal to administer one dose in the morning alone, avoiding administering a dose at night in order to minimise the known side effect of diarrhoea during the night, and ii) one dose per day is generally expected to result in a better patient compliance. The tablet sizes employed in the trial were 10 mg and 45 mg which allowed administration of different dose sizes by combining tablets.
As illustrated in FIG. 1(i), the initial dose sizes were: placebo, 20 mg QD, 90 mg QD and 180 mg QD. Also included was a dose size of 90 mg BID which was evaluated in the earlier Phase 2a study. […] This warranted a further investigation of twice daily dosing. It was decided to add a new 40 mg BID group, and to cease the 20 mg QD dose.

## CCCC[C@]1(CC)CS(=O)(=O)c2cc(CNC(CC(=O)O)CC(=O)O)c(OC)cc2[C@@H](c2ccccc2)N1 [linerixibat]
[1]; 90 mg BID, 22 subjects with PBC pruritus
  pruritus severity compared to placebo (NRS, 5D Itch Scale and PBC-40): statistically significant decrease
[1]; 90 mg BID, 14 day crossover
  reduction in itch intensity as compared to placebo: 71%
[1]; 90 mg BID, 95% CI: −0.94 to −0.24
  itch intensity, PBC-40 itch domain, compared to placebo: −0.59
[1]; 90 mg BID, 95% CI: −6.60 to −2.49
  itch intensity, 5-D itch, compared to placebo: −4.55
[1]; 90 mg BID, 95%CI: −2.48 to −0.68
  itch intensity as measured by NRS, compared to placebo: −1.58
[1]; human, in vivo
  fatigue, sleep disturbance and overall disability compared to placebo: Decreases
  time at which reduction of pruritus severity occurred: within the first week
[1]; two weeks of oral twice daily 90 mg
  tolerability: well tolerated
[2]; 20 mg QD (N = 14)
  Abdominal distension: number of patients: 0
  Abdominal pain lower: % of patients: (7%)
  Abdominal pain lower: number of patients: 1
  Abdominal pain upper: % of patients: (14%)
  Abdominal pain upper: number of patients: 2
  Abdominal pain: % of patients: (14%)
  Abdominal pain: number of patients: 2
  Adverse events Main Study, ANY EVENT: % of patients: (57%)
  Adverse events Main Study, ANY EVENT: number of patients: 8
  Diarrhoea: % of patients: (36%)
  Diarrhoea: number of patients: 5
  Dry mouth: % of patients: (14%)
  Dry mouth: number of patients: 2
  Flatulence: % of patients: (7%)
  Flatulence: number of patients: 1
  Gastrointestinal disorders, Any event: % of patients: (50%)
  Gastrointestinal disorders, Any event: number of patients: 7
  Gastrooesophageal reflux disease: % of patients: (7%)
  Gastrooesophageal reflux disease: number of patients: 1
  Nausea: % of patients: (7%)
  Nausea: number of patients: 1
  Vomiting: % of patients: (7%)
  Vomiting: number of patients: 1
[2]; 40 mg BID versus higher doses
  gastrointestinal tolerability data: favored 40 mg BID dosing over higher doses
[2]; 90 mg BID (N = 13)
  Abdominal distension: number of patients: 0
  Abdominal pain upper: number of patients: 0
  Abdominal pain: number of patients: 1
  Adverse events Main Study, ANY EVENT: % of patients: (69%)
  Adverse events Main Study, ANY EVENT: number of patients: 9
  Diarrhoea: number of patients: 5
  Dry mouth: number of patients: 0
  Flatulence: number of patients: 0
  Gastrointestinal disorders, Any event: number of patients: 5
  Gastrooesophageal reflux disease: number of patients: 0
  Nausea: % of patients: (15%)
  Nausea: number of patients: 2
  Vomiting: % of patients: (8%)
  Vomiting: number of patients: 1
[2]; 90 mg BID versus 180 mg QD
  tolerability at interim analysis: better tolerated than 180 mg QD
[2]; 90 mg QD (N = 12)
  Abdominal distension: % of patients: (8%)
  Abdominal distension: number of patients: 1
  Abdominal pain lower: % of patients: (8%)
  Abdominal pain lower: number of patients: 1
  Abdominal pain: % of patients: (8%)
  Abdominal pain: number of patients: 1
  Adverse events Main Study, ANY EVENT: % of patients: (75%)
  Adverse events Main Study, ANY EVENT: number of patients: 9
  Diarrhoea: % of patients: (50%)
  Diarrhoea: number of patients: 6
  Dry mouth: % of patients: (8%)
  Dry mouth: number of patients: 1
  Flatulence: number of patients: 0
  Gastrointestinal disorders, Any event: % of patients: (50%)
  Gastrointestinal disorders, Any event: number of patients: 6
  Gastrooesophageal reflux disease: number of patients: 0
  Nausea: number of patients: 0
  Vomiting: number of patients: 0
[2]; 180 mg QD (N = 17)
  Abdominal distension: % of patients: (6%)
  Abdominal pain lower: number of patients: 0
  Abdominal pain upper: % of patients: (6%)
  Abdominal pain: number of patients: 5
  Adverse events Main Study, ANY EVENT: % of patients: (82%)
  Adverse events Main Study, ANY EVENT: number of patients: 14
  Diarrhoea: number of patients: 10
  Dry mouth: number of patients: 0
  Flatulence: % of patients: (6%)
  Gastrointestinal disorders, Any event: number of patients: 14
  Gastrooesophageal reflux disease: number of patients: 0
  Nausea: % of patients: (6%)
  Nausea: number of patients: 1
  Vomiting: % of patients: (12%)
  Vomiting: number of patients: 2
[2]; in vivo
  most common AE: diarrhea
